Measured values published in paper PMC2639639, “Identification of Three Classes of Heteroaromatic Compounds with Activity against Intracellular Trypanosoma cruzi by Chemical Library Screening” (PLoS Neglected Tropical Diseases, 2009).
Entries after “also recorded” stand apart in the source; their conditions may differ. Where two headings read alike, the source gives them in different places.

Assays:
L. major = test: Leishmania growth inhibition assay in bone marrow-derived macrophages (L. major); format: cell-based; conditions: 5 days; for Reduction in parasite burden, L. major: 2 µM, added 2 h post-infection of macrophages; for IC50: Leishmania major, Macrophage, 120 h, macrophages, read-out: estimated IC50 against intracellular L. major
Protocol: (§1) Adherent bone marrow-derived macrophages were harvested in cold DMEM+0.5 mM EDTA and seeded into an 8-well Lab-Tek II chambered coverglass (Nalge Nunc International, Naperville, IL) at a concentration of 50,000 cells/chamber 24 h before being used for infections.
(§2) L. major and L. amazonensis parasites were opsonized for 30 min by incubation in DMEM containing 4% BALB/c serum and then allowed to invade macrophages in 200 µl DMEM supplemented with 10% FBS and Pen-Strep-Glut, at a MOI of 3 parasites per macrophage for 2 h at 33°C (5% CO2, 95% air humidity),[17]. Thereafter, non-phagocytosed parasites were washed off, and the cultures were further incubated in 300 µl of medium in the presence or the absence of drugs at the indicated concentration for 3 days for L. amazonensis and 5 days for L. major. Medium was changed and drugs were added again at the same concentration on day 2 post-infection. Intracellular parasites were assessed after staining with DAPI (3 µM) by fluorescence microscopy. The total number of amastigotes/500 macrophages was counted in each well. Kruskal-Wallis test was used to analyze the data, followed by a Dunn's post-comparison test.

NIH/3T3 cells = test: Cytotoxicity assay (Alamar Blue) on NIH/3T3 cells; format: cell-based; conditions: 4 days
Protocol: (§3) Cells (NIH/3T3 or HepG2) were washed and plated at a density of 50,000 cells/well of 96-well plates in 200 µl and allowed to adhere for 3 h. Twenty-four hour assays were done in DMEM without phenol red supplemented with 10% FBS and Pen-Strep-Glut, while 4-day assays were done in the same medium containing 2% FBS. Drugs were added and mixed. After 1 or 4 days, 20 µl of Alamar Blue (Biosource, Invitrogen) was added. Plates were incubated for 4 h (HepG2) or 6 h (NIH/3T3) at 37°C and fluorescence was read using a Labsystems Fluoroskan II plate reader (excitation: 544 nm, emission: 590 nm) .
(§4) To determine TC50 values, fluorescence was plotted against inhibitor concentration. TC50 was determined as the concentration at which cytotoxicity (fluorescence) was half that in the absence of inhibitor.

[1] = system: T. cruzi (Tulahuen strain) expressing β-galactosidase; test: T. cruzi growth inhibition assay (β-gal activity, infection of NIH/3T3 cells); format: cell-based, Trypanosoma cruzi; conditions: Trypanosoma cruzi, TULAHUEN, NIH3T3, 96 h, 4 days
Protocol: NIH/3T3 cells and parasites were harvested, washed once and resuspended in DMEM supplemented with 2% FBS and Pen-Strep-Glut. […] Different numbers of NIH/3T3 cells were seeded in 96-well plates. After 3 h, compounds were added at the indicated concentrations and mixed by pipetting. BZN tablets (Rochagan, Roche) dissolved in DMSO and 4 µM Amphotericin B solution (Sigma-Aldrich) were used as positive controls. Different numbers of T. cruzi parasites were added in a final volume of 200 µl/well. After 4 days, 50 µl of PBS containing 0.5% of the detergent NP40 and 100 µM Chlorophenol Red-β-D-galactoside (CPRG) (Fluka) were added. Plates were incubated at 37°C for 4 h and absorbance was read at 590 nm using a Tecan Spectra Mini plate reader.
To calculate the Z′ factor, we used the formula described by Zhang et al.: Z′ = 1−[(3σc++3σc−) / |μc+−μc−|] where σc+ = standard deviation (SD) of positive control, σc− = SD of negative control, μc+ = mean of positive control, μc− = mean of negative control. Subsequently, the best ratio was used for all growth inhibition assays (50.000 cells and parasites, multiplicity of infection (MOI) 1∶1).
To determine IC50 values, β-gal activity (Abs590) was plotted against compound concentration for each compound. The IC50 was determined as the concentration at which the activity (absorbance) was half that in the absence of compound. Mean IC50 values are the average of independent experiments performed in triplicate on three different days.

[2] = system: intracellularly growing T. cruzi amastigotes; test: Development assay with immunofluorescence (intracellular amastigotes, Tulahuen β-gal strain); format: cell-based, Trypanosoma cruzi; conditions: for Number of parasites per infected cell (intracellular replication) / Morphology of intracellularly growing T. cruzi: added after 2 h infection; for Number of parasites per infected cell (intracellular replication): 2 days; for Morphology of intracellularly growing T. cruzi: fixed after 2 or 3 days, PCH1 100 nM, NT1 400 nM, CX1 90 nM
Protocol: (§5) Fifty thousand NIH/3T3 cells were seeded on sterile glass coverslips in 12-well plates and allowed to adhere overnight. Five million parasites were added (MOI 100∶1) and allowed to infect for 2 h in DMEM+2% FBS and Pen-Strep-Glut. Parasites were rinsed out three times with PBS. Infected cells were further incubated and fixed for 15 min with 4% paraformaldehyde at the times indicated.
(§6) Fixed cells on coverslips were rinsed with PBS, permeabilized for 15 min in PBS with 0.1% Triton X-100 (Sigma-Aldrich). After blocking for 20 min in PBS with 10% goat serum, 1% bovine serum albumin, 100 mM glycine and 0.05% sodium azide, cells were incubated for 1 h at room temperature with a polyclonal rabbit anti-T. cruzi (gift from Dr B. Burleigh, Harvard School of Public Health, Boston, MA) at 1∶2000 dilution. After rinsing, an Alexa Fluor® 488 goat anti-rabbit IgG secondary antibody (Molecular Probes, Invitrogen) was added for 1 h at a 1∶800 dilution. DNA was stained with DAPI and coverslips were mounted on Mowiol. To determine the number of parasites per infected cell, between 200 and 300 infected cells per coverslip were scored in triplicate samples using an inverted Olympus IX70 microscope with a 60× oil objective. Data are presented as mean±standard deviation. Images were taken with the same microscope.

[3] = system: Free trypomastigotes (β-gal T. cruzi); test: T. cruzi lysis assay; format: cell-based; conditions: Trypanosoma cruzi; lysis assay, 100,000 parasites, 24 h
Protocol: Trypomastigotes were rinsed once and plated in 96-well plates at 100,000/well with the compounds in a final volume of 200 µl of DMEM without phenol red supplemented with 2% FBS, Pen-Strep-Glut and 100 µM CPRG. Plates were incubated for 24 h at 37°C and absorbance was read at 590 nm.

L. amazonensis = test: Leishmania growth inhibition assay in bone marrow-derived macrophages (L. amazonensis); format: cell-based; conditions: 3 days; for Reduction in parasite burden, L. amazonensis: 2 µM, added 2 h post-infection of macrophages; for IC50: Leishmania amazonensis, Macrophage, 72 h, macrophages, read-out: estimated IC50 against intracellular L. amazonensis
Protocol: as §1, §2

HepG2 cells = test: Cytotoxicity assay (Alamar Blue) on HepG2 cells; format: cell-based, human
Protocol: as §3, §4

T. cruzi Y strain = test: Development assay with immunofluorescence (Y strain); format: cell-based, Trypanosoma cruzi; conditions: added after 2 h infection, 2 days
Protocol: as §5, §6

T. cruzi = conditions: cited from earlier work
mammalian cells = test: Cytotoxicity on mammalian cells (cell type not given); format: cell-based; conditions: type of mammalian cells and duration not specified at the place
Protocol: as §3, §4

Leishmania = system: Leishmania; design: method as in PMID 15891135; conditions: read-out: IC50 (Leishmania positive control); cited from earlier work
[4] = β-gal T. cruzi Tulahuen, 50.000 NIH/3T3 cells and parasites (MOI 1:1), read-out: IC50 Intracellular growth

Row | SMILES | Reduction in parasite burden, L. major (L. major) | IC50 (L. major) [µM] | TC50 NIH/3T3 cells at 4 days (NIH/3T3 cells) [µM] | IC50 [1, 4] [µM] | Phenotype of intracellular T. cruzi, compounds added 2 days after infection [2] | Number of parasites per infected cell (intracellular replication) [2] | Morphology of intracellularly growing T. cruzi [2] | IC50 [3] [µM] | Reduction in parasite burden, L. amazonensis (L. amazonensis) [%] | IC50 (L. amazonensis) [µM] | TC50 HepG2 cells at 24 h (HepG2 cells) [µM] | TC50 HepG2 cells at 4 days (HepG2 cells) [µM] | Effect on intracellular T. cruzi Y strain (T. cruzi Y strain) | IC50 ([1]; β-gal T. cruzi Tulahuen in NIH/3T3 cells, read-out: IC50 T. cruzi growth inhibition) [µM] | IC50 (T. cruzi; read-out: IC50 against T. cruzi (reported)) [µM] | IC50 (T. cruzi; read-out: IC50 against T. cruzi in vitro) [µM] | Toxicity (TC50) versus anti-trypanosomal activity (IC50) (mammalian cells) | IC50 (Leishmania) [µM]
1 | O=C(NN=Cc1ccc(-c2cccc(Cl)c2Cl)o1)c1ccccn1 [PCH1, N′-{[5-(2,3-dichlorophenyl)-2-furyl]methylene}-2-pyridinecarbohydrazide] | about 50% | ~2 | >300 | 0.054 ± 0.01 | induced major defects in cell division at the IC100 and parasite lysis at higher doses | induced a growth arrest of intracellular T. cruzi | larger amastigotes containing multiple disorganized nuclei and kinetoplasts were observed | 240 ± 60 | 70 | ~0.1 | >300 | 66 ± 7 | inhibit intracellular replication of T. cruzi Y strain |  |  |  |  | 
2 | O=C(Cn1ccnc1[N+](=O)[O-])NCc1ccccc1 [BZN, benznidazole, reference compound] |  |  |  |  |  |  |  |  |  |  |  |  |  | 1.15 | 1.5 |  |  | 
3 | OC(Cn1cncn1)(Cn1cncn1)c1ccc(F)cc1F [Fluconazole, fluconazole] |  |  |  |  |  |  |  |  |  |  |  |  |  |  |  | 8 |  | 
4 | O=C(Cn1cnc([N+](=O)[O-])n1)Nc1cc(Oc2cccc(C(F)(F)F)c2)cc([N+](=O)[O-])c1 [NT1, 2-(3-nitro-1H-1,2,4-triazol-1-yl)-N-{3-nitro-5-[3-(trifluoromethyl)phenoxy]phenyl}acetamide] | ~80% | ~0.5 | 14 ± 6 | 0.19 ± 0.04 | had a trypanostatic effect | induced a growth arrest of intracellular T. cruzi | inhibited replication of parasites without altering their overall morphology | 6.8 ± 0.9 | 50 | ~0.5 | 30 ± 10 | 7.6 ± 0.3 | inhibit intracellular replication of T. cruzi Y strain; also recorded: displayed activity on the Y strain, but at higher concentrations |  |  |  |  | 
5 | Cc1cc(OCCCCCCn2ccnc2)cc(C)c1Cl [CX1, 1-[6-(4-chloro-3,5-dimethylphenoxy)hexyl]-1H-imidazole] | ~70% | ~0.5 | 16 ± 6 | 0.023 ± 0.007 | induced parasite lysis and host cell apoptosis in concentrations as low as 90 nM |  | displayed pycnotic nuclei (star) and debris of parasites protein and DNA throughout the cytoplasm | 13.5 ± 1 | 70 | ~0.5 | 57 ± 8 | 12 ± 4 | induced parasite lysis with morphological changes; also recorded: dose effect on the Y strain of T. cruzi was similar to the β-gal-expressing Tulahuen strain |  |  |  | over 500 fold | 
6 | C[C@@H]1[C@H](O)[C@@H](C)/C=C/C=C/C=C/C=C/C=C/C=C/C=C/[C@H](O[C@@H]2O[C@H](C)[C@@H](O)[C@H](N)[C@@H]2O)C[C@@H]2O[C@](O)(C[C@@H](O)C[C@@H](O)[C@H](O)CC[C@@H](O)C[C@@H](O)CC(=O)O[C@H]1C)C[C@H](O)[C@H]2C(=O)O [Amphotericin B] |  |  |  |  |  |  |  |  |  |  |  |  |  |  |  |  |  | 0.1
